In ChEMBL document CHEMBL3994622, “Design and synthesis of new RAF kinase-inhibiting antiproliferative quinoline derivatives. Part 2: Diarylurea derivatives” (Eur J Med Chem, 2017):

Key:
Assay type in all cases: functional
[1] = system: Malme-3M; assay: Growth inhibition of human MALME-3M cells assessed as cell growth at 0.03 uM incubated for 48 hrs by sulforhodamine B assay relative to control; conditions: read-out: Activity
[2] = system: IGROV-1; assay: Growth inhibition of human IGROV1 cells assessed as cell growth at 3 uM incubated for 48 hrs by sulforhodamine B assay relative to control; conditions: IGROV-1, 48 h, read-out: Activity
[3] = system: MDA-MB-435; assay: Growth inhibition of human MDA-MB-435 cells assessed as cell growth at 0.03 uM incubated for 48 hrs by sulforhodamine B assay relative to control; conditions: MDA-MB-435, 48 h, read-out: Activity
[4] = system: OVCAR-3; assay: Growth inhibition of human OVCAR3 cells assessed as cell growth at 0.03 uM incubated for 48 hrs by sulforhodamine B assay relative to control; conditions: OVCAR-3, 48 h, read-out: Activity
[5] = system: OVCAR-3; assay: Growth inhibition of human OVCAR3 cells assessed as cell growth at 0.003 uM incubated for 48 hrs by sulforhodamine B assay relative to control; conditions: OVCAR-3, 48 h, read-out: Activity
[6] = system: NCI/ADR-RES; assay: Growth inhibition of human NCI/ADR-RES cells assessed as cell growth at 30 uM incubated for 48 hrs by sulforhodamine B assay relative to control; conditions: read-out: Activity
[7] = system: SNB-75; assay: Growth inhibition of human SNB75 cells assessed as cell growth at 30 uM incubated for 48 hrs by sulforhodamine B assay relative to control; conditions: SNB-75, 48 h, read-out: Activity
[8] = system: PC-3; assay: Growth inhibition of human PC3 cells assessed as cell growth at 3 uM incubated for 48 hrs by sulforhodamine B assay relative to control; conditions: PC-3, 48 h, read-out: Activity
[9] = system: SF-295; assay: Growth inhibition of human SF295 cells assessed as cell growth at 30 uM incubated for 48 hrs by sulforhodamine B assay relative to control; conditions: SF-295, 48 h, read-out: Activity
[10] = system: SK-OV-3; assay: Growth inhibition of human SKOV3 cells assessed as cell growth at 0.3 uM incubated for 48 hrs by sulforhodamine B assay relative to control; conditions: SK-OV-3, 48 h, read-out: Activity
[11] = system: U-251; assay: Growth inhibition of human U251 cells assessed as cell growth at 0.3 uM incubated for 48 hrs by sulforhodamine B assay relative to control; conditions: U-251, 48 h, read-out: Activity
[12] = system: SF-295; assay: Growth inhibition of human SF295 cells assessed as cell growth at 3 uM incubated for 48 hrs by sulforhodamine B assay relative to control; conditions: SF-295, 48 h, read-out: Activity
[13] = system: OVCAR-5; assay: Growth inhibition of human OVCAR5 cells assessed as cell growth at 30 uM incubated for 48 hrs by sulforhodamine B assay relative to control; conditions: OVCAR-5, 48 h, read-out: Activity
[14] = system: SK-OV-3; assay: Growth inhibition of human SKOV3 cells assessed as cell growth at 0.003 uM incubated for 48 hrs by sulforhodamine B assay relative to control; conditions: SK-OV-3, 48 h, read-out: Activity
[15] = system: OVCAR-4; assay: Growth inhibition of human OVCAR4 cells assessed as cell growth at 1 uM incubated for 48 hrs by sulforhodamine B assay relative to control; conditions: OVCAR-4, 48 h, read-out: Activity
[16] = system: SK-MEL-2; assay: Growth inhibition of human SK-MEL-2 cells assessed as cell growth at 0.1 uM incubated for 48 hrs by sulforhodamine B assay relative to control; conditions: SK-MEL-2, 48 h, read-out: Activity
[17] = system: NCI-H23; assay: Growth inhibition of human NCI-H23 cells assessed as cell growth at 10 uM incubated for 48 hrs by sulforhodamine B assay relative to control; conditions: NCI-H23, 48 h, read-out: Activity
[18] = system: 786-0; assay: Growth inhibition of human 786-0 cells assessed as cell growth at 0.01 uM incubated for 48 hrs by sulforhodamine B assay relative to control; conditions: 786-0, 48 h, read-out: Activity
[19] = system: A498; assay: Growth inhibition of human A498 cells assessed as cell growth at 1 uM incubated for 48 hrs by sulforhodamine B assay relative to control; conditions: A498, 48 h, read-out: Activity
[20] = system: DU-145; assay: Growth inhibition of human DU145 cells assessed as cell growth at 0.01 uM incubated for 48 hrs by sulforhodamine B assay relative to control; conditions: DU-145, 48 h, read-out: Activity
[21] = system: NCI-H522; assay: Growth inhibition of human NCI-H522 cells assessed as cell growth at 100 uM incubated for 48 hrs by sulforhodamine B assay relative to control; conditions: NCI-H522, 48 h, read-out: Activity
[22] = system: 786-0; assay: Growth inhibition of human 786-0 cells assessed as cell growth at 0.1 uM incubated for 48 hrs by sulforhodamine B assay relative to control; conditions: 786-0, 48 h, read-out: Activity
[23] = system: LOX IMVI; assay: Growth inhibition of human LOXIMVI cells assessed as cell growth at 100 uM incubated for 48 hrs by sulforhodamine B assay relative to control; conditions: read-out: Activity
[24] = system: SK-MEL-28; assay: Growth inhibition of human SK-MEL-28 cells assessed as cell growth at 10 uM incubated for 48 hrs by sulforhodamine B assay relative to control; conditions: SK-MEL-28, 48 h, read-out: Activity
[25] = system: LOX IMVI; assay: Growth inhibition of human LOXIMVI cells assessed as cell growth at 10 uM incubated for 48 hrs by sulforhodamine B assay relative to control; conditions: read-out: Activity
[26] = system: NCI-H322M; assay: Growth inhibition of human NCI-H322M cells assessed as cell growth at 1 uM incubated for 48 hrs by sulforhodamine B assay relative to control; conditions: read-out: Activity
[27] = system: HCT-116; assay: Growth inhibition of human HCT116 cells assessed as cell growth at 0.01 uM incubated for 48 hrs by sulforhodamine B assay relative to control; conditions: HCT-116, 48 h, read-out: Activity
[28] = system: NCI-H226; assay: Growth inhibition of human NCI-H226 cells assessed as cell growth at 0.1 uM incubated for 48 hrs by sulforhodamine B assay relative to control; conditions: NCI-H226, 48 h, read-out: Activity
[29] = system: NCI-H460; assay: Growth inhibition of human NCI-H460 cells assessed as cell growth at 0.01 uM incubated for 48 hrs by sulforhodamine B assay relative to control; conditions: NCI-H460, 48 h, read-out: Activity
[30] = system: UACC-62; assay: Growth inhibition of human UACC62 cells assessed as cell growth at 1 uM incubated for 48 hrs by sulforhodamine B assay relative to control; conditions: UACC-62, 48 h, read-out: Activity
[31] = system: OVCAR-8; assay: Growth inhibition of human OVCAR8 cells assessed as cell growth at 10 uM incubated for 48 hrs by sulforhodamine B assay relative to control; conditions: OVCAR-8, 48 h, read-out: Activity
[32] = system: HOP-92; assay: Growth inhibition of human HOP92 cells assessed as cell growth at 1 uM incubated for 48 hrs by sulforhodamine B assay relative to control; conditions: HOP-92, 48 h, read-out: Activity
[33] = system: UACC-257; assay: Growth inhibition of human UACC257 cells assessed as cell growth at 1 uM incubated for 48 hrs by sulforhodamine B assay relative to control; conditions: UACC-257, 48 h, read-out: Activity
[34] = system: NCI/ADR-RES; assay: Growth inhibition of human NCI/ADR-RES cells assessed as cell growth at 10 uM incubated for 48 hrs by sulforhodamine B assay relative to control; conditions: read-out: Activity

SMILES	growth at 0.03 µM [1] [%]	growth at 3 µM [2] [%]	growth at 0.03 µM [3] [%]	growth at 0.03 µM [4] [%]	growth at 0.003 µM [5] [%]	growth at 30 µM [6] [%]	growth at 30 µM [7] [%]	growth at 3 µM [8] [%]	growth at 30 µM [9] [%]	growth at 0.3 µM [10] [%]	growth at 0.3 µM [11] [%]	growth at 3 µM [12] [%]	growth at 30 µM [13] [%]	growth at 0.003 µM [14] [%]	growth at 1 µM [15] [%]	growth at 0.1 µM [16] [%]	growth at 10 µM [17] [%]	growth at 0.01 µM [18] [%]	growth at 1 µM [19] [%]	growth at 0.01 µM [20] [%]	also measured
COc1cc2cc(Oc3ccc(NC(=O)Nc4ccc(Cl)c(C(F)(F)F)c4)cc3)c(C)nc2cc1OC	100	39	95	91	100	-39	-44	-3	-59	103	94	-5	-81	101							
COc1cc2cc(Oc3ccc(NC(=O)Nc4ccc(Cl)c(Cl)c4)cc3)c(C)nc2cc1OC															93	116	15	83	74	109	growth at 100 µM [21]: -63%; growth at 0.1 µM [22]: 95%; growth at 100 µM [23]: -100%; growth at 10 µM [24]: 16%; growth at 10 µM [25]: 20%; growth at 1 µM [26]: 102%; growth at 0.01 µM [27]: 89%; growth at 0.1 µM [28]: 107%; growth at 0.01 µM [29]: 105%; growth at 1 µM [30]: 77%; growth at 10 µM [31]: 13%; growth at 1 µM [32]: 91%; growth at 1 µM [33]: 92%; growth at 10 µM [34]: 14%
Cc1nc2cc(O)c(O)cc2cc1Oc1ccc(NC(=O)Nc2ccc(Cl)c(Cl)c2)cc1	101	95	91	107	105	3	-4	56	9	108	87	98	-6	104							
COc1cc2cc(Oc3ccc(NC(=O)Nc4cc(C(F)(F)F)cc(C(F)(F)F)c4)cc3)c(C)nc2cc1OC															58	94	-32	89	74	103	growth at 100 µM [21]: -79%; growth at 0.1 µM [22]: 92%; growth at 100 µM [23]: -90%; growth at 10 µM [24]: -61%; growth at 10 µM [25]: -84%; growth at 1 µM [26]: 59%; growth at 0.01 µM [27]: 97%; growth at 0.1 µM [28]: 101%; growth at 0.01 µM [29]: 105%; growth at 1 µM [30]: 35%; growth at 10 µM [31]: -46%; growth at 1 µM [32]: 54%; growth at 1 µM [33]: 107%; growth at 10 µM [34]: -54%
